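1) Cells in 96-well plates. 2) Compound, 48 h, 5 concentrations. 3) Linear interpolation between surrounding doses. 4) Unreached endpoint = highest concentration. GI50 = concentration required for 50% inhibition of growth.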 Active and inactive are the calls of the source. Rule as the data show it: active = GI50 up to about 1.1 µM and inactive = higher.
Tests used:
Experiment in all cases: NCI-60 cell line screen, 48 h
786-0 = system: 786-0
A498 = system: A498
A549 = system: A549
ACHN = system: ACHN
BT-549 = system: BT-549
CAKI-1 = system: CAKI-1
COLO 205 = system: COLO 205
DU-145 = system: DU-145
EKVX = system: EKVX
HCC 2998 = system: HCC 2998
HCT-116 = system: HCT-116
HCT-15 = system: HCT-15
HOP-62 = system: HOP-62
HOP-92 = system: HOP-92
HT-29 = system: HT-29
Hs-578T = system: Hs-578T
IGROV-1 = system: IGROV-1
KM12 = system: KM12
LOX IMVI = system: LOX IMVI
M14 = system: M14
MCF7 = system: MCF7
MDA-MB-231 = system: MDA-MB-231
MDA-MB-435 = system: MDA-MB-435
MDA-N = system: MDA-N
MOLT-4 = system: MOLT-4
Malme-3M = system: Malme-3M
NCI-H226 = system: NCI-H226
NCI-H23 = system: NCI-H23
NCI-H460 = system: NCI-H460
NCI-H522 = system: NCI-H522
OVCAR-3 = system: OVCAR-3
OVCAR-4 = system: OVCAR-4
OVCAR-5 = system: OVCAR-5
OVCAR-8 = system: OVCAR-8
PC-3 = system: PC-3
RPMI-8226 = system: RPMI-8226
RXF 393 = system: RXF 393
SF-268 = system: SF-268
SF-295 = system: SF-295
SF-539 = system: SF-539
SK-MEL-28 = system: SK-MEL-28
SK-MEL-2 = system: SK-MEL-2
SK-MEL-5 = system: SK-MEL-5
SK-OV-3 = system: SK-OV-3
SN12C = system: SN12C
SNB-19 = system: SNB-19
SNB-75 = system: SNB-75
SW-620 = system: SW-620
TK-10 = system: TK-10
U-251 = system: U-251
UACC-257 = system: UACC-257
UACC-62 = system: UACC-62
UO-31 = system: UO-31
NCI/ADR-RES = system: NCI/ADR-RES
CCRF-CEM = system: CCRF-CEM
HL-60 = system: HL-60
K562 = system: K562
SR = system: SR

COc1cc(/C=C/C(C)=O)ccc1OP(=O)(O)O
GI50 (786-0): > 100 µM (inactive) | GI50 (A498): > 100 µM (inactive) | GI50 (A549): > 100 µM (inactive) | GI50 (ACHN): > 100 µM (inactive) | GI50 (BT-549): > 100 µM (inactive) | GI50 (CAKI-1): > 100 µM (inactive) | GI50 (COLO 205): > 100 µM (inactive) | GI50 (DU-145): > 100 µM (inactive) | GI50 (EKVX): > 100 µM (inactive) | GI50 (HCC 2998): > 100 µM (inactive) | GI50 (HCT-116): > 100 µM (inactive) | GI50 (HCT-15): > 100 µM | GI50 (HOP-62): > 100 µM (inactive) | GI50 (HOP-92): > 100 µM (inactive) | GI50 (HT-29): > 100 µM (inactive) | GI50 (Hs-578T): > 100 µM (inactive) | GI50 (IGROV-1): > 100 µM (inactive) | GI50 (KM12): > 100 µM (inactive) | GI50 (LOX IMVI): > 100 µM (inactive) | GI50 (M14): > 100 µM (inactive) | GI50 (MCF7): > 100 µM (inactive) | GI50 (MDA-MB-231): > 100 µM (inactive) | GI50 (MDA-MB-435): > 100 µM (inactive) | GI50 (MDA-N): > 100 µM (inactive) | GI50 (MOLT-4): > 100 µM (inactive) | GI50 (Malme-3M): > 100 µM (inactive) | GI50 (NCI-H226): > 100 µM (inactive) | GI50 (NCI-H23): > 100 µM (inactive) | GI50 (NCI-H460): > 100 µM (inactive) | GI50 (NCI-H522): > 100 µM (inactive) | GI50 (OVCAR-3): > 100 µM (inactive) | GI50 (OVCAR-4): > 100 µM (inactive) | GI50 (OVCAR-5): > 100 µM (inactive) | GI50 (OVCAR-8): > 100 µM (inactive) | GI50 (PC-3): > 100 µM (inactive) | GI50 (RPMI-8226): > 100 µM (inactive) | GI50 (RXF 393): > 100 µM (inactive) | GI50 (SF-268): > 100 µM (inactive) | GI50 (SF-295): > 100 µM (inactive) | GI50 (SF-539): > 100 µM (inactive) | GI50 (SK-MEL-28): > 100 µM (inactive) | GI50 (SK-MEL-2): > 100 µM (inactive) | GI50 (SK-MEL-5): > 100 µM (inactive) | GI50 (SK-OV-3): > 100 µM (inactive) | GI50 (SN12C): > 100 µM (inactive) | GI50 (SNB-19): > 100 µM (inactive) | GI50 (SNB-75): > 100 µM (inactive) | GI50 (SW-620): > 100 µM (inactive) | GI50 (TK-10): > 100 µM (inactive) | GI50 (U-251): > 100 µM (inactive) | GI50 (UACC-257): > 100 µM (inactive) | GI50 (UACC-62): > 100 µM (inactive) | GI50 (UO-31): > 100 µM (inactive)

C1=NN2C(c3ccccc3)=NOC2C2C(c3ccccc3)=NOC12 (centres undefined)
GI50 (786-0): > 100 µM (inactive) | GI50 (A549): > 100 µM (inactive) | GI50 (ACHN): 98.6 µM (inactive) | GI50 (BT-549): > 100 µM (inactive) | GI50 (CAKI-1): > 100 µM (inactive) | GI50 (COLO 205): > 100 µM (inactive) | GI50 (DU-145): > 100 µM (inactive) | GI50 (EKVX): > 100 µM (inactive) | GI50 (HCC 2998): > 100 µM (inactive) | GI50 (HCT-116): > 100 µM (inactive) | GI50 (HCT-15): > 100 µM | GI50 (HOP-62): > 100 µM (inactive) | GI50 (Hs-578T): > 100 µM (inactive) | GI50 (IGROV-1): > 100 µM (inactive) | GI50 (KM12): > 100 µM (inactive) | GI50 (LOX IMVI): > 100 µM (inactive) | GI50 (M14): > 100 µM (inactive) | GI50 (MCF7): > 100 µM (inactive) | GI50 (MDA-MB-231): > 100 µM (inactive) | GI50 (MDA-N): > 100 µM (inactive) | GI50 (Malme-3M): > 100 µM (inactive) | GI50 (NCI-H226): 96.2 µM (inactive) | GI50 (NCI-H23): > 100 µM (inactive) | GI50 (NCI-H460): > 100 µM (inactive) | GI50 (NCI-H522): 42.9 µM (inactive) | GI50 (NCI/ADR-RES): 97.9 µM (inactive) | GI50 (OVCAR-3): > 100 µM (inactive) | GI50 (OVCAR-5): > 100 µM (inactive) | GI50 (OVCAR-8): > 100 µM (inactive) | GI50 (PC-3): > 100 µM (inactive) | GI50 (RXF 393): > 100 µM (inactive) | GI50 (SF-268): > 100 µM (inactive) | GI50 (SF-295): > 100 µM (inactive) | GI50 (SF-539): > 100 µM (inactive) | GI50 (SK-MEL-5): 58.7 µM (inactive) | GI50 (SK-OV-3): > 100 µM (inactive) | GI50 (SNB-19): > 100 µM (inactive) | GI50 (SNB-75): > 100 µM (inactive) | GI50 (TK-10): > 100 µM (inactive) | GI50 (UACC-257): > 100 µM (inactive) | GI50 (UACC-62): > 100 µM (inactive) | GI50 (UO-31): > 100 µM (inactive)

CC(=O)O[C@H]1CC2C(C3CCC(C(C)CCC(=O)O)[C@]31C)[C@H](OC(C)=O)C[C@@H]1CC3(CC[C@]21C)OOC1(CC[C@]2(C)C4C[C@H](OC(C)=O)[C@]5(C)C(C(C)CCC(=O)O)CCC5C4[C@H](OC(C)=O)C[C@@H]2C1)OO3 (some centres undefined)
GI50 (786-0): 2.76 µM (inactive) | GI50 (A549): 1.27 µM (inactive) | GI50 (ACHN): 1.71 µM (inactive) | GI50 (BT-549): 1.56 µM (inactive) | GI50 (CAKI-1): 2.19 µM (inactive) | GI50 (CCRF-CEM): 2.59 µM (inactive) | GI50 (COLO 205): 1.91 µM (inactive) | GI50 (DU-145): 1.2 µM (inactive) | GI50 (EKVX): 2.81 µM (inactive) | GI50 (HCC 2998): 2.03 µM (inactive) | GI50 (HCT-116): 1.75 µM (inactive) | GI50 (HCT-15): 2.22 µM | GI50 (HL-60): 1.51 µM (inactive) | GI50 (HOP-62): 1.83 µM (inactive) | GI50 (HT-29): 2.57 µM (inactive) | GI50 (Hs-578T): 1.5 µM (inactive) | GI50 (IGROV-1): 2.12 µM (inactive) | GI50 (K562): 2.44 µM (inactive) | GI50 (KM12): 1.31 µM (inactive) | GI50 (LOX IMVI): 1.63 µM (inactive) | GI50 (M14): 2.53 µM (inactive) | GI50 (MCF7): 2.7 µM (inactive) | GI50 (MDA-MB-231): 2.01 µM (inactive) | GI50 (MDA-MB-435): 1.94 µM (inactive) | GI50 (MDA-N): 2.31 µM (inactive) | GI50 (MOLT-4): 2.03 µM (inactive) | GI50 (Malme-3M): 1.52 µM (inactive) | GI50 (NCI-H226): 2.04 µM (inactive) | GI50 (NCI-H23): 1.64 µM (inactive) | GI50 (NCI-H460): 1.48 µM (inactive) | GI50 (NCI-H522): 1.42 µM (inactive) | GI50 (NCI/ADR-RES): 2.63 µM (inactive) | GI50 (OVCAR-3): 1.8 µM (inactive) | GI50 (OVCAR-4): 2.8 µM (inactive) | GI50 (OVCAR-5): 1.78 µM (inactive) | GI50 (OVCAR-8): 1.66 µM (inactive) | GI50 (PC-3): 1.69 µM (inactive) | GI50 (RPMI-8226): 2.76 µM (inactive) | GI50 (RXF 393): 1.36 µM (inactive) | GI50 (SF-268): 1.38 µM (inactive) | GI50 (SF-295): 1.77 µM (inactive) | GI50 (SK-MEL-28): 4.09 µM (inactive) | GI50 (SK-MEL-2): 1.77 µM (inactive) | GI50 (SK-MEL-5): 1.55 µM (inactive) | GI50 (SK-OV-3): 4.08 µM (inactive) | GI50 (SN12C): 2.42 µM (inactive) | GI50 (SNB-19): 2.86 µM (inactive) | GI50 (SNB-75): 1.3 µM (inactive) | GI50 (SR): 3.3 µM (inactive) | GI50 (SW-620): 3.46 µM (inactive) | GI50 (TK-10): 2.75 µM (inactive) | GI50 (U-251): 1.28 µM (inactive) | GI50 (UACC-257): 2.15 µM (inactive) | GI50 (UO-31): 1.74 µM (inactive)
